The results in this text go back to patent US20230095021A1, “MODULATORS OF TDP-43” (Alteron Therapeutics, Inc., priority 2019, published 2023).

The experiment deals with BACE1. The experiment is described as follows: Screening for ALT-59 derivatives with BACE1 protein levels as indicator, U-87 MG cells. The experiment is classed as cell-based. Conditions: 2 days, concentrations as indicated in FIGS. 15-17. The procedure:
Additional experiments were performed to screen for compounds with higher potency and the ability to penetrate blood brain barrier using BACE1 protein levels as an indicator. U-87 MG cells were cultured as described previously and treated for 2 days with compounds at concentrations as indicated in FIGS. 15-17. Cells were then subjected to Western blotting analysis using anti-BACE1 and anti-beta-actin antibodies.
In the case of `CCN(CC)c1ccc(C2Nc3ccc4ccccc4c3C3=C2C(=O)CC(C)(C)C3)cc1` (centres unmarked) [ALT-318, 5-(4-(diethylamino)phenyl)-2,2-dimethyl-2,3,5,6-tetrahydrobenzo[a]phenanthridin-4(1H)-one], the BACE1 protein expression entry is recorded as “capable of lowering BACE1 expression”.

As for `Cn1ccnc1Sc1ccc(C2Nc3ccc4ccccc4c3C3=C2C(=O)CC(C)(C)C3)cc1[N+](=O)[O-]` (centres unmarked) [ALT-324, 2,2-dimethyl-5-(4-((1-methyl-1H-imidazol-2-yl)thio)-3-nitrophenyl)-2,3,5,6-tetrahydrobenzo[a]phenanthridin-4(1H)-one], the BACE1 protein expression result is listed as “capable of lowering BACE1 expression”.

For `Cc1ccc(C2Nc3ccc4ccccc4c3C3=C2C(=O)CC(C)(C)C3)cc1` (centres unmarked) [ALT-306, 2,2-dimethyl-5-(p-tolyl)-2,3,5,6-tetrahydrobenzo[a]phenanthridin-4(1H)-one], the BACE1 protein expression entry is on record as “capable of lowering BACE1 expression”.

Consider `C#CCOc1c(I)cc(C2Nc3ccc4ccccc4c3C3=C2C(=O)CC(C)(C)C3)cc1OC` (centres unmarked) [ALT-402, 5-(3-iodo-5-methoxy-4-(prop-2-yn-1-yloxy)phenyl)-2,2-dimethyl-2,3,5,6-tetrahydrobenzo[a]phenanthridin-4(1H)-one], for which the BACE1 protein expression entry is “capable of lowering BACE1 expression”.

Consider `CC1(C)CC(=O)C2=C(C1)c1c(ccc3ccccc13)NC2c1ccc(C(F)(F)F)cc1` (centres unmarked) [ALT-212, 2,2-dimethyl-5-(4-(trifluoromethyl)phenyl)-2,3,5,6-tetrahydrobenzo[a]phenanthridin-4(1H)-one], for which the BACE1 protein expression entry was “capable of lowering BACE1 expression”.

`CC1(C)CC(=O)C2=C(C1)c1c(ccc3ccccc13)NC2c1cccc(C(F)(F)F)c1` (centres unmarked) [ALT-215, 2,2-dimethyl-5-(3-(trifluoromethyl)phenyl)-2,3,5,6-tetrahydrobenzo[a]phenanthridin-4(1H)-one]: the BACE1 protein expression result is reported as “capable of lowering BACE1 expression”.

For the compound `CC1CCN(c2ccc(C3Nc4ccc5ccccc5c4C4=C3C(=O)CC(C)(C)C4)cc2[N+](=O)[O-])CC1` (centres unmarked) [ALT-322, 2,2-dimethyl-5-(4-(4-methylpiperidin-1-yl)-3-nitrophenyl)-2,3,5,6-tetrahydrobenzo[a]phenanthridin-4(1H)-one], the BACE1 protein expression result is on record as “capable of lowering BACE1 expression”.

On to `CCOC(=O)COc1c(Cl)cc(C2Nc3ccc4ccccc4c3C3=C2C(=O)CCC3)cc1OC` (centres unmarked) [ALT-406, ethyl 2-(2-chloro-6-methoxy-4-(4-oxo-1,2,3,4,5,6-hexahydrobenzo[a]phenanthridin-5-yl)phenoxy)acetate], for which the BACE1 protein expression result is recorded as “capable of lowering BACE1 expression”.

Take `O=C1CCCC2=C1C(c1ccc3c(c1)OCO3)Nc1c2ccc2ncccc12` (centres unmarked) [ALT-403, 6-(benzo[d][1,3]dioxol-5-yl)-6,8,9,10-tetrahydrobenzo[c][1,7]phenanthrolin-7(5H)-one]: the BACE1 protein expression entry is on record as “capable of lowering BACE1 expression”.

Turning to `CCCC(=O)Oc1ccc(C2Nc3ccc4ccccc4c3C3=C2C(=O)CCC3)cc1OC` (centres unmarked) [ALT-408, 2-methoxy-4-(4-oxo-1,2,3,4,5,6-hexahydrobenzo[a]phenanthridin-5-yl)phenyl butyrate], the BACE1 protein expression entry is recorded as “capable of lowering BACE1 expression”.

`COc1ccc(C2Nc3ccc4ccccc4c3C3=C2C(=O)CC(C)(C)C3)cc1Br` (centres unmarked) [ALT-307, 5-(3-bromo-4-methoxyphenyl)-2,2-dimethyl-2,3,5,6-tetrahydrobenzo[a]phenanthridin-4(1H)-one]: the BACE1 protein expression entry was “capable of lowering BACE1 expression”.

As to `COc1ccc(C2Nc3c(ccc4ccccc34)C3=C2C(=O)CCC3)cc1Br` (centres unmarked) [ALT-108, 6-(3-bromo-4-methoxyphenyl)-6,8,9,10-tetrahydrobenzo[c]phenanthridin-7(5H)-one], the BACE1 protein expression result is “capable of lowering BACE1 expression”.

As for `C=CCOc1ccc(C2Nc3ccc4ccccc4c3C3=C2C(=O)CC(C)(C)C3)cc1OC` (centres unmarked) [ALT-409, 5-(4-(allyloxy)-3-methoxyphenyl)-2,2-dimethyl-2,3,5,6-tetrahydrobenzo[a]phenanthridin-4(1H)-one], the BACE1 protein expression entry is on record as “capable of lowering BACE1 expression”.

Turning to `CC1(C)CC(=O)C2=C(C1)C(c1ccc3c(c1)OCO3)Nc1ccc3ccccc3c12` (centres unmarked) [ALT-201, 5-(benzo[d][1,3]dioxol-5-yl)-3,3-dimethyl-3,4,5,6-tetrahydrobenzo[a]phenanthridin-1(2H)-one], the BACE1 protein expression result is “capable of lowering BACE1 expression”.

Turning to `COc1cc(C2Nc3ccc4ccccc4c3C3=C2C(=O)CC(C)(C)C3)cc2c1OCO2` (centres unmarked) [ALT-211, 5-(7-methoxybenzo[d][1,3]dioxol-5-yl)-2,2-dimethyl-2,3,5,6-tetrahydrobenzo[a]phenanthridin-4(1H)-one], the BACE1 protein expression result is “capable of lowering BACE1 expression”.

As for `CC1(C)CC(=O)C2=C(C1)c1cc3ccccc3cc1NC2c1ccc2c(c1)OCO2` (centres unmarked) [ALT-205, 5-(benzo[d][1,3]dioxol-5-yl)-2,2-dimethyl-2,3,5,6-tetrahydrobenzo[b]phenanthridin-4(1H)-one], the BACE1 protein expression result was “capable of lowering BACE1 expression”.

Turning to `O=C1CCCC2=C1C(c1ccc(O)c(O)c1)Nc1c2ccc2ccccc12` (centres unmarked) [ALT-317, 6-(3,4-dihydroxyphenyl)-6,8,9,10-tetrahydrobenzo[c]phenanthridin-7(5H)-one], the BACE1 protein expression entry is given as “capable of lowering BACE1 expression”.

As for `CCN(CC)c1ccc(C2Nc3ccc4ncccc4c3C3=C2C(=O)CC(C)(C)C3)cc1` (centres unmarked) [ALT-404, 8-(4-(diethylamino)phenyl)-11,11-dimethyl-8,10,11,12-tetrahydrobenzo[a][4,7]phenanthrolin-9(7H)-one], the BACE1 protein expression entry was “capable of lowering BACE1 expression”.

As for `CC(C)c1ccc(C2Nc3ccc4ccccc4c3C3=C2C(=O)CC(C)(C)C3)cc1` (centres unmarked) [ALT-309, 5-(4-isopropylphenyl)-2,2-dimethyl-2,3,5,6-tetrahydrobenzo[a]phenanthridin-4(1H)-one], the BACE1 protein expression entry was “capable of lowering BACE1 expression”.

As for `COC(=O)COc1ccc(C2Nc3ccc4ccccc4c3C3=C2C(=O)CCC3)cc1` (centres unmarked) [ALT-411, methyl 2-(4-(4-oxo-1,2,3,4,5,6-hexahydrobenzo[a]phenanthridin-5-yl)phenoxy)acetate], the BACE1 protein expression result is “capable of lowering BACE1 expression”.

For `CC1(C)CC(=O)C2=C(C1)c1c(ccc3ccccc13)NC2c1ccc(Br)s1` (centres unmarked) [ALT-202, 5-(5-bromothiophen-2-yl)-2,2-dimethyl-2,3,5,6-tetrahydrobenzo[a]phenanthridin-4(1H)-one], the BACE1 protein expression result was “capable of lowering BACE1 expression”.

As to `CC1(C)CC(=O)C2=C(C1)c1c(ccc3ccccc13)NC2c1ccc(Cl)c(Cl)c1` (centres unmarked) [ALT-204, 5-(3,4-dichlorophenyl)-2,2-dimethyl-2,3,5,6-tetrahydrobenzo[a]phenanthridin-4(1H)-one], the BACE1 protein expression entry was “capable of lowering BACE1 expression”.

Take `CSc1ccc(C2Nc3ccc4ccccc4c3C3=C2C(=O)CC(C)(C)C3)cc1` (centres unmarked) [ALT-311, 2,2-dimethyl-5-(4-(methylthio)phenyl)-2,3,5,6-tetrahydrobenzo[a]phenanthridin-4(1H)-one]: the BACE1 protein expression result is “capable of lowering BACE1 expression”.

`CCOc1ccc(C2Nc3ccc4ccccc4c3C3=C2C(=O)CC(C)(C)C3)cc1OC` (centres unmarked) [ALT-207, 5-(4-ethoxy-3-methoxyphenyl)-2,2-dimethyl-2,3,5,6-tetrahydrobenzo[a]phenanthridin-4(1H)-one]: the BACE1 protein expression result was “capable of lowering BACE1 expression”.

Take `Cc1ccc(C2Nc3c(ccc4ccccc34)C3=C2C(=O)CC(C)(C)C3)cc1` (centres unmarked) [ALT-333, 9,9-dimethyl-6-(p-tolyl)-6,8,9,10-tetrahydrobenzo[c]phenanthridin-7(5H)-one]: the BACE1 protein expression entry was “capable of lowering BACE1 expression”.

With `COc1cc(C2Nc3ccc4ccccc4c3C3=C2C(=O)CC(C)(C)C3)ccc1OCC(=O)O` (centres unmarked) [ALT-413, 2-(4-(2,2-dimethyl-4-oxo-1,2,3,4,5,6-hexahydrobenzo[a]phenanthridin-5-yl)-2-methoxyphenoxy)acetic acid], the BACE1 protein expression entry is given as “capable of lowering BACE1 expression”.

As to `CC1(C)CC(=O)C2=C(C1)c1c(ccc3ccccc13)NC2c1cccc(OCc2cc3c(cc2Cl)OCO3)c1` (centres unmarked) [ALT-210, 5-(3-((6-chlorobenzo[d][1,3]dioxol-5-yl)methoxy)phenyl)-2,2-dimethyl-2,3,5,6-tetrahydrobenzo[a]phenanthridin-4(1H)-one], the BACE1 protein expression entry is listed as “capable of lowering BACE1 expression”.

On to `COc1cc(C2Nc3ccc4ccccc4c3C3=C2C(=O)CC(C)(C)C3)cc(Br)c1OC` (centres unmarked) [ALT-208, 5-(3-bromo-4,5-dimethoxyphenyl)-2,2-dimethyl-2,3,5,6-tetrahydrobenzo[a]phenanthridin-4(1H)-one], for which the BACE1 protein expression result is reported as “capable of lowering BACE1 expression”.

For `CC1(C)CC(=O)C2=C(C1)c1c(ccc3ccccc13)NC2c1cccc(OC(F)(F)C(F)F)c1` (centres unmarked) [ALT-110, 2,2-dimethyl-5-(3-(1,1,2,2-tetrafluoroethoxy)phenyl)-2,3,5,6-tetrahydrobenzo[a]phenanthridin-4(1H)-one], the BACE1 protein expression result is given as “capable of lowering BACE1 expression”.
